{
  "source": "patent US12016870B2",
  "about": "“Agents for use in the treatment of cardiac arrhythmia” (priority 2018, dated 2024)",
  "key": {"[1]": {"system": "multi-junction preparations (branched tissue architecture) of rat cardiomyocytes", "test": "Conduction velocity in branched (multi-junction) cardiomyocyte preparations, model of discontinuous conduction", "type": "cell-based", "settings": "10 nmol/L Gb3 for 24 hrs", "protocol": "Impulse propagation along the patterned preparations was followed optically using a fast voltage-sensitive dye (Rohr et al., 1994, Biophys J., 67(3):1301-1315). In short, the preparations were stained for 3 to 4 minutes with 1 mL of the superfusion solution containing […] of the voltage-sensitive dye di-8-ANEPPS (Molecular Probes). The dye was excited by a short-arc xenon lamp driven by a low-ripple power supply (Optiquip). The light was, after passing a shutter (VS25S21 MO, Vincent Assoc), short-pass filtered (570 EFSP, Omega) and deflected toward the objective by means of a dichroic mirror (575 nm; Omega). Emitted fluorescence from the preparation was long-pass filtered (590 nm, Omega) and projected onto a 2-dimensional array of 379 optical fibers, which formed a hexagonal array (Rohr et al., 1998, Biophys J., 75(2):1062-1075). From the entire array, ≤80 fibers were selected according to the shape of a given preparation and were connected to individual photodiodes. […] Experiments were performed with a 20×, 0.75 numerical aperture (NA) objective (each detector monitored a circular area with a diameter of 50 um corresponding to 4 to 10 cells contributing to the signal) permitting assessment of activation along the preparations for distances up to 1 mm. […]\nThe raw data were analyzed by programming routines written in Interactive Data Language (IDL; Creaso). […]"}, "[2]": {"system": "tissue engineered strands of rat ventricular cardiomyocytes", "test": "Conduction velocity along linear tissue engineered cardiomyocyte strands, optical recording with di-8-ANEPPS", "type": "cell-based", "settings": "for Conduction velocity (CV) along strands of cardiomyocytes: mean+/-SD", "protocol": "The effects of Gb3 on impulse propagation characteristics were investigated in tissue engineered strands of rat ventricular cardiomyocytes where impulse propagation was recorded using the voltage sensitive dye di-8-ANEPPS as described below.\nImpulse propagation along the patterned preparations was followed optically using a fast voltage-sensitive dye (Rohr et al., 1994, Biophys J., 67(3):1301-1315). In short, the preparations were stained for 3 to 4 minutes with 1 mL of the superfusion solution containing […] of the voltage-sensitive dye di-8-ANEPPS (Molecular Probes). The dye was excited by a short-arc xenon lamp driven by a low-ripple power supply (Optiquip). The light was, after passing a shutter (VS25S21 MO, Vincent Assoc), short-pass filtered (570 EFSP, Omega) and deflected toward the objective by means of a dichroic mirror (575 nm; Omega). Emitted fluorescence from the preparation was long-pass filtered (590 nm, Omega) and projected onto a 2-dimensional array of 379 optical fibers, which formed a hexagonal array (Rohr et al., 1998, Biophys J., 75(2):1062-1075). From the entire array, ≤80 fibers were selected according to the shape of a given preparation and were connected to individual photodiodes. The resulting photocurrents were converted to voltages and amplified (typical overall gain of 2.5×10^9 V/A f0=1.6 kHz). The conditioned signals were simultaneously sampled at 20 kHz/channel by a computer-based data acquisition system. Experiments were performed with a 20×, 0.75 numerical aperture (NA) objective (each detector monitored a circular area with a diameter of 50 um corresponding to 4 to 10 cells contributing to the signal) permitting assessment of activation along the preparations for distances up to 1 mm.\nAfter mounting the preparations in the experimental chamber, control superfusion was started (Hanks' balanced salt solution (HBSS), containing (mmol/L) NaCl 137, KCl 5.4, CaCl2 1.3, MgSO4 0.8, NaHCO3 4.2, KH2PO4 0.5, NaH2PO4 0.3, and HEPES 10, which was titrated to pH 7.40 with NaOH). The preparations were stimulated with bipolar electrodes consisting of glass micropipettes (filling, HBSS with 1% agar) and a silver wire coiled around the shank of the electrode. The electrodes were attached to micromanipulators (DC-3K, Marzhauser) and placed at a sufficient distance from the measurement site (1 mm) to (1) avoid electronically mediated stimulation artifacts to distort the signal of interest and (2) permit propagation to reach steady-state conditions at the site of the measurement. Rectangular impulses (duration, 1 ms; 2-3 times threshold intensity) were delivered to the preparations at a basic cycle length of 500 ms by a stimulator (SD9, Grass Instruments) for at least 10 seconds before a given optical recording. All experiments were performed at a temperature of 36+/−0.4° C.\nThe raw data were analyzed by programming routines written in Interactive Data Language (IDL; Creaso). The data processing typically involved manual selection of the upstroke portions of the action potentials to omit any signal distortion due to motion artifacts occurring several milliseconds after the upstrokes. The data were digitally low-pass filtered and signal amplitudes obtained under control conditions were set to 100%.\nWhile control preparations conducted action potentials (APs) at a speed of 321.8±20.9 mm/sec (N=15), CVs in strands incubated with 10 nM Gb3 were increased by over 20% to 390.2±21.3 mm/sec (N=6, p<0.0001 versus control)."}},
  "data": [
    {"substance": "globotriaosylceramide [Gb3]", "values": [
      {"measurement": "Increase in CV in branched preparations treated with Gb3", "setting": "[1]; versus control branched preparations", "value": "~67", "unit": "%"},
      {"measurement": "CV in multi-junction preparations as % of linear strands", "setting": "[1]; N=25, normalized to linear strands grown in parallel (control multi-junction 57.4±6.7%)", "value": "84.7±2.3", "unit": "%"},
      {"measurement": "Increase of CV versus control", "setting": "[2]; 10 nM Gb3, 24 hours exposure", "value": "over 20%"},
      {"measurement": "Conduction velocity (CV) along strands of cardiomyocytes", "setting": "[2]; 10 nM Gb3, 24 hours exposure, N=6, p<0.0001 versus control (control 321.8±20.9 mm/sec)", "value": "390.2±21.3", "unit": "mm/sec"},
      {"measurement": "Conduction velocity (CV) along strands of cardiomyocytes", "setting": "[2]; 100 nM Gb3, 24 hours exposure, p<0.005 vs control", "value": "358.8±20.3", "unit": "mm/sec"},
      {"measurement": "Conduction velocity (CV) along strands of cardiomyocytes", "setting": "[2]; 1 μM Gb3, 24 hours exposure, p=0.3 vs control", "value": "338.4±27.3", "unit": "mm/sec"},
      {"measurement": "Cytotoxic effects", "setting": "[2]; all Gb3 concentrations used, 24 hours exposure", "value": "None of the concentrations of Gb3 used were associated with cytotoxic effects"}
    ]}
  ]
}
